# Results reported in article PMC4521866 (PLoS ONE, 2015).
# Experiment: Solubility and structural stability of peptides
# Format: physicochemical
# Settings: effect of adding HR2 hydrophilic residues to the LK21 N-terminus; qualitative
row,Molecule,solubility and structural stability
1,CC[C@H](C)[C@H](NC(=O)[C@H](Cc1ccc(O)cc1)NC(=O)[C@H](Cc1c[nH]c2ccccc12)NC(=O)[C@H](CC(C)C)NC(=O)[C@H](Cc1c[nH]c2ccccc12)NC(=O)[C@H](CC(N)=O)NC(=O)[C@@H](NC(=O)[C@@H](NC(=O)[C@H](CC(N)=O)NC(=O)[C@H](Cc1ccccc1)NC(=O)[C@H](Cc1c[nH]c2ccccc12)NC(=O)[C@H](CC(N)=O)NC(=O)[C@H](Cc1c[nH]c2ccccc12)NC(=O)[C@H](CC(C)C)NC(=O)[C@H](CO)NC(=O)[C@H](C)NC(=O)[C@H](Cc1c[nH]c2ccccc12)NC(=O)[C@H](CCCCN)NC(=O)[C@H](CC(=O)O)NC(=O)[C@H](CC(C)C)NC(=O)[C@H](CCC(=O)O)NC(=O)[C@H](CC(C)C)NC(=O)[C@H](CC(C)C)NC(=O)[C@H](CCC(=O)O)NC(=O)[C@H](CCC(N)=O)NC(C)=O)[C@@H](C)CC)[C@@H](C)O)C(=O)N[C@@H](CCCCN)C(N)=O [QK26],greatly enhanced
2,Ac-EESQNQQEKNEQELLELDKWASLWNWFNITNWLWYIK-NH2 [EK37],greatly enhanced
3,CC[C@H](C)[C@H](NC(=O)[C@H](Cc1ccc(O)cc1)NC(=O)[C@H](Cc1c[nH]c2ccccc12)NC(=O)[C@H](CC(C)C)NC(=O)[C@H](Cc1c[nH]c2ccccc12)NC(=O)[C@H](CC(N)=O)NC(=O)[C@@H](NC(=O)[C@@H](NC(=O)[C@H](CC(N)=O)NC(=O)[C@H](Cc1ccccc1)NC(=O)[C@H](Cc1c[nH]c2ccccc12)NC(=O)[C@H](CC(N)=O)NC(=O)[C@H](Cc1c[nH]c2ccccc12)NC(=O)[C@H](CC(C)C)NC(=O)[C@H](CO)NC(=O)[C@H](C)NC(=O)[C@H](Cc1c[nH]c2ccccc12)NC(=O)[C@H](CCCCN)NC(=O)[C@H](CC(=O)O)NC(=O)[C@H](CC(C)C)NC(=O)[C@H](CCC(=O)O)NC(=O)[C@H](CC(C)C)NC(=O)[C@H](CC(C)C)NC(=O)[C@H](CCC(=O)O)NC(=O)[C@H](CCC(N)=O)NC(=O)[C@H](CCC(=O)O)NC(=O)[C@H](CC(N)=O)NC(=O)[C@H](CCCCN)NC(=O)[C@H](CCC(=O)O)NC(C)=O)[C@@H](C)CC)[C@@H](C)O)C(=O)N[C@@H](CCCCN)C(N)=O [EK30],greatly enhanced
